From patent US4613586A, “Gastrin releasing peptide-like peptides” (Board of Trustees of the Leland Stanford Junior University, priority 1984, dated 1986)
No end group written: not given here.

What was measured:
Assay type in all cases: binding, rabbit
[1] = test system: GRP(1-27) antisera Code R3-2; test: GRP carboxyterminal radioimmunoassay (crossreactivity, displacement of 125I-GRP(1-27) trace); conditions: for Percent Crossreactivity in RIA GRP(1-27) Code R3-2: antisera dilution 1:20,000, GRP(1-27) trace and standard, based on amount of unlabeled peptide for 50 percent displacement, highest concentration tested 1 μM; for Crossreactivity with GRP carboxyterminal antiserum (in words): summary of Table 1
Text: (§1) Three GRP antisera were generated in rabbits against synthetic porcine GRP and GRP(1-16) (Peninsula Laboratories, San Carlos, CA) linked by a water soluble carbodiimide to bovine throglobulin (as described by Weber, E., Evans, C. J., Chang, J-K. and Barchas, J. D., J. Neurochem 38, 436-447 (1982). RIA conditions have been described in Weber, E., Evans, C. J., and Barchas, J. D., Nature 299, 77-79 (1982). Three GRP RIA's were utilized, the specificity of these RIA's is indicated in Table 1.
(§2) An antisera dilution of 1:20,000 for the GRP(1-27) R3-2 antisera and a dilution of 1:15,000 for the GRP(1-16) R2-6A were used for RIA. For these RIA's GRP(1-27) was used as ^125 I-trace and standard. An antisera dilution of 1:20,000 for GRP(1-16) R2-6B and GRP(1-16) trace and standard were used in the GRP(1-16) carboxyterminal assay. Crossreactivity was based on the amount of unlabeled peptide needed to obtain a 50 percent displacement of ^125 I-trace from the antisera. The highest concentration of unlabeled peptide tested was 1 μM.

[2] = test system: GRP(1-16) antisera Code R2-6A; test: GRP aminoterminal radioimmunoassay (crossreactivity, displacement of 125I-GRP(1-27) trace); conditions: summary of Table 1
Text: as §1, §2

[3] = test system: GRP(1-16) antisera Code R2-6B; test: GRP(1-16) carboxyterminal radioimmunoassay (crossreactivity, displacement of 125I-GRP(1-16) trace); conditions: summary of Table 1
Text: as §1, §2

Row | Compound | Percent Crossreactivity in RIA GRP(1-27) Code R3-2 [1] [%] | Crossreactivity with GRP carboxyterminal antiserum (in words) [1] | Crossreactivity in GRP aminoterminal RIA (in words) [2] | Crossreactivity with GRP(1-16) carboxyterminal antisera (in words) [3]
1 | CSCC[C@H](NC(=O)[C@H](CC(C)C)NC(=O)[C@H](Cc1cnc[nH]1)NC(=O)CNC(=O)[C@@H](NC(=O)[C@H](C)NC(=O)[C@H](Cc1c[nH]c2ccccc12)NC(=O)[C@H](CCC(N)=O)NC(=O)[C@H](CC(N)=O)NC(=O)CNC(=O)[C@H](CC(C)C)NC(=O)[C@H](CCCN=C(N)N)NC(=O)[C@H](CCC(N)=O)NC(=O)[C@@H]1CCC(=O)N1)C(C)C)C(N)=O [Bombesin] | 30 | crossreacted | – | –
2 | CSCC[C@H](NC(=O)[C@H](CC(C)C)NC(=O)[C@H](Cc1c[nH]cn1)NC(=O)CNC(=O)[C@@H](NC(=O)[C@H](C)NC(=O)[C@H](Cc1c[nH]c2ccccc12)NC(=O)[C@H](Cc1c[nH]cn1)NC(=O)[C@H](CC(N)=O)NC(=O)CN)C(C)C)C(N)=O [GRP(18-27), Gly-Asn-His-Trp-Ala-Val-Gly-His-Leu-Met-NH2] | 60 | crossreacted | not | –
3 | APVSVGGGTVLAKMYPRGNHWAVGHLM-NH2 [GRP] | 100 | crossreacted | crossreacted | little crossreactivity
